Columns and labels:
Type in all cases: cell-based
[1] = target: T1, human EGFR exon 20 insertion NPG (H773_V774insNPG) (Homo sapiens, UniProt P00533, INS772GNP); experiment: Ba/F3-EGFR-Exon20-NPG cell anti-proliferative assay (CellTiter 96 MTS, 72 h); settings: Ba/F3-EGFR-Exon20-NPG cells
T1 construct: expressed in transfected cells; host or cells: Ba/F3 (murine pro-B) cells transduced with lentivirus from pLVX-IRES puro
Outline: (§1)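 Ba/F3 cells made IL-3-independent by lentiviral EGFR exon 20 NPG or ASV insertion were exposed 72 h at 37 °C to 4-fold dilutions of compound (top 10,000 nM). Viability read by MTS tetrazolium conversion, absorbance 490 nm after 2 h.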

[2] = target: T2, human EGFR E746-A750 deletion and T790M Mutation (Homo sapiens, UniProt P00533, DEL746-750/T790M); experiment: Ba/F3-EGFR-Del/T790M cell anti-proliferative assay (CellTiter 96 MTS, 72 h); settings: Ba/F3-EGFR-Del/T790M cells
T2 construct: expressed in transfected cells; host or cells: Ba/F3 (murine pro-B) cells transduced with lentivirus from pLVX-IRES puro
Outline: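 Ba/F3 cells made IL-3-independent by lentiviral human EGFR E746-A750 del/T790M, puromycin-selected. Cells treated 72 h at 37 °C with compound, 4-fold dilutions from 10,000 nM top concentration. Viability read by MTS tetrazolium-to-formazan conversion, absorbance at 490 nm after 2 h with reagent.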

[3] = target: T3, human EGFR L858R and T790M double mutation (Homo sapiens, UniProt P00533, L858R/T790M); experiment: Ba/F3-EGFR L858R/T790M cell anti-proliferative assay (CellTiter 96 MTS, 72 h); settings: Ba/F3-EGFR L858R/T790M cells
T3 construct: expressed in transfected cells; host or cells: Ba/F3 (murine pro-B) cells transduced with lentivirus from pLVX-IRES puro
Procedure: An expression vector, pLVX-IRES puro (Clontech) coding for human EGFR L858R and T790M double mutation, was transfected into HEK293 cells by the Trans-Lentiviral ORF Packaging System (Thermo Scientific), to produce virus encoding EGFR L858R and T790M double mutations. Ba/F3 (DSMZ) cells maintained in RPMI 1640 medium supplemented with 10% fetal bovine serum, 200 μM L-glutamine/l 200 μg/mL penicillin/200 μg/mL streptomycin (Life Technology) and 10 ng/mL IL-3 (R&D system), were infected by EGFR L858R and T790M double mutation virus and subsequently selected by puromycin (Life Technology) selection and IL-3 depletion. […] The anti-proliferative activity of compounds was determined as follows: BaF3-EGFR L858R/T790M cells seeded in 96 well plates (2500 cells/well) were treated with test compound (dissolved in DMSO) at a series of concentrations (4-fold dilution, top concentration: 10,000 nM). The plates were incubated for 72 h in a 37° C. incubator with 5% CO2, and the number of viable cells in each well were measured indirectly by CellTiter 96® Aqueous One Solution Cell Proliferation Assay (Promega; this assay is a colorimetric method for determining the number of viable cells through measurement of their metabolic activity by detection of enzymatic conversion of tetrazolium salts into blue formazan derivatives). Reagent (20 μL) was added into each well, and the plates were returned to the incubator for 2 h. The absorbance in each well was then measured at 490 nm using an Envision plate reader (Perkin Elmer).

[4] = target: T4, Her2 exon 20 YVMA insertion (A775_G776ins YVMA) (Homo sapiens, UniProt P04626, INS775YVMA); experiment: Ba/F3-Her2 Exon20 YVMA cell anti-proliferative assay (CellTiter 96 MTS, 72 h); settings: Ba/F3-Her2 Exon20 YVMA cells
T4 construct: expressed in transfected cells; host or cells: Ba/F3 (murine pro-B) cells transduced with lentivirus from pLVX-IRES puro
Outline: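 IL-3-independent Ba/F3 cells transduced with the YVMA insertion were treated with compound in 4-fold dilutions from 10,000 nM top. After 72 h at 37° C, viable cells were quantified by MTS tetrazolium conversion, with absorbance read at 490 nm after 2 h.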

[5] = target: T5, human EGFR exon 20 insertion ASV (V769_D770insASV) (Homo sapiens, UniProt P00533, INS769ASV); experiment: Ba/F3-EGFR-Exon20-ASV cell anti-proliferative assay (CellTiter 96 MTS, 72 h); settings: Ba/F3-EGFR-Exon20-ASV cells
T5 construct: expressed in transfected cells; host or cells: Ba/F3 (murine pro-B) cells transduced with lentivirus from pLVX-IRES puro
Outline: as §1

T1 sequence (P00533 with tags, fused parts or gaps INS772GNP): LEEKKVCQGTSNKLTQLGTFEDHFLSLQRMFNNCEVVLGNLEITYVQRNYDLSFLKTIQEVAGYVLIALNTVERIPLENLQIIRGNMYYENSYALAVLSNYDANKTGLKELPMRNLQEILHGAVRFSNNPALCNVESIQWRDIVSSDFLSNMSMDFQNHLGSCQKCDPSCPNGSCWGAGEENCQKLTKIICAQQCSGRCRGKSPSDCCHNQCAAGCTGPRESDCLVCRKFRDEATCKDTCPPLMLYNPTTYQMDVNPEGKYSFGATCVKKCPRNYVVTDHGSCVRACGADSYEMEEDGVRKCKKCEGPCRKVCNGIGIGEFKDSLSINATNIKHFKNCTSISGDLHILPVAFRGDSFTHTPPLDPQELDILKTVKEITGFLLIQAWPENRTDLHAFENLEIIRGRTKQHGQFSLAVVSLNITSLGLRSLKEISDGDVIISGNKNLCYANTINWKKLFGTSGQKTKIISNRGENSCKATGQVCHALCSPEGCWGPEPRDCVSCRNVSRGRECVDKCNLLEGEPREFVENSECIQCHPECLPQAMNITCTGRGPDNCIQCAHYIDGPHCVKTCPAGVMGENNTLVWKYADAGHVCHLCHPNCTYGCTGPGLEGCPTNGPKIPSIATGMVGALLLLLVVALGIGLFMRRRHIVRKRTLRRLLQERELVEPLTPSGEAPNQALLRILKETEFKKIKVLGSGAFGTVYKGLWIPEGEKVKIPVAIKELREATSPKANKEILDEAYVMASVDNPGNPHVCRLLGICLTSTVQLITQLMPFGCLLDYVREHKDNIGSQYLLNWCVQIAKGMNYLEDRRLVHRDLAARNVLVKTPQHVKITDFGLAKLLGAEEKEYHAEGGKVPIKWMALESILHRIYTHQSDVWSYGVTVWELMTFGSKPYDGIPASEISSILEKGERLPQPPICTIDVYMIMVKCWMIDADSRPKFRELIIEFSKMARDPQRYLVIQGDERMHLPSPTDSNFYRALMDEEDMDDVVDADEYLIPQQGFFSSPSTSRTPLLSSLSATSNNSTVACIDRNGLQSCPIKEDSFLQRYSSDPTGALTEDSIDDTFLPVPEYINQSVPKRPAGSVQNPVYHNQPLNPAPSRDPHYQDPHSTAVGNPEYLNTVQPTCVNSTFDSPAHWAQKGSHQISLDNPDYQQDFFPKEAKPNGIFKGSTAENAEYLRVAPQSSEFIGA
T5 sequence (P00533 with tags, fused parts or gaps INS769ASV): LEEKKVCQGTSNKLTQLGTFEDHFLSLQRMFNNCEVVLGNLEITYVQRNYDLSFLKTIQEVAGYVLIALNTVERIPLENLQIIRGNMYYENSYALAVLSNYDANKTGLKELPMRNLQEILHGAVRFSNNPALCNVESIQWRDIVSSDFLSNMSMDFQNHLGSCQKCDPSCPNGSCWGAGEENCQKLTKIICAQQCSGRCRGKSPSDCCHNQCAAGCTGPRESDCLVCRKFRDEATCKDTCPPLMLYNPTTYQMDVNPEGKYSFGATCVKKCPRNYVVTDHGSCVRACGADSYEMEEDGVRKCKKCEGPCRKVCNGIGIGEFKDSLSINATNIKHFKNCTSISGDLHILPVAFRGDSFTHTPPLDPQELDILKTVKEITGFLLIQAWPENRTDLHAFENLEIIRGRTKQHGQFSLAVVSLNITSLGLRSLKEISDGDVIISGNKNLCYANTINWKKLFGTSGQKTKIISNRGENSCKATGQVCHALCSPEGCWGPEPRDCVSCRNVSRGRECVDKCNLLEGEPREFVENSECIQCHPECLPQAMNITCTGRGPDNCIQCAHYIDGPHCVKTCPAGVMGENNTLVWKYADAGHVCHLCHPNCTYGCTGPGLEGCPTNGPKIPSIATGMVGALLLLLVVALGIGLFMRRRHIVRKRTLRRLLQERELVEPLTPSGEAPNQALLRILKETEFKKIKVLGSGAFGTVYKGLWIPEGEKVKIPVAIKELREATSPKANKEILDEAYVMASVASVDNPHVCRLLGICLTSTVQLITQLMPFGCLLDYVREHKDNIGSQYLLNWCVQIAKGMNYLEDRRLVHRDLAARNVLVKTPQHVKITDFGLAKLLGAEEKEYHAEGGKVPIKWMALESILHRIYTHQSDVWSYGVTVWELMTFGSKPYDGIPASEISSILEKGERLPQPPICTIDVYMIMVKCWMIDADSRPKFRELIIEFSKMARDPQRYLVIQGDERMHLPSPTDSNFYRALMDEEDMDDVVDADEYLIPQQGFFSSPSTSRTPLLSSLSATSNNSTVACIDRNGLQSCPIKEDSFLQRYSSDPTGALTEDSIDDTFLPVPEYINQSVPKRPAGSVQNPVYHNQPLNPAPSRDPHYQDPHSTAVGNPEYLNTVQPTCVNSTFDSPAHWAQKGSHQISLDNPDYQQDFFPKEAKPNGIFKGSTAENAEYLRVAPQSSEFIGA
T2 sequence (P00533 with tags, fused parts or gaps DEL746-750/T790M): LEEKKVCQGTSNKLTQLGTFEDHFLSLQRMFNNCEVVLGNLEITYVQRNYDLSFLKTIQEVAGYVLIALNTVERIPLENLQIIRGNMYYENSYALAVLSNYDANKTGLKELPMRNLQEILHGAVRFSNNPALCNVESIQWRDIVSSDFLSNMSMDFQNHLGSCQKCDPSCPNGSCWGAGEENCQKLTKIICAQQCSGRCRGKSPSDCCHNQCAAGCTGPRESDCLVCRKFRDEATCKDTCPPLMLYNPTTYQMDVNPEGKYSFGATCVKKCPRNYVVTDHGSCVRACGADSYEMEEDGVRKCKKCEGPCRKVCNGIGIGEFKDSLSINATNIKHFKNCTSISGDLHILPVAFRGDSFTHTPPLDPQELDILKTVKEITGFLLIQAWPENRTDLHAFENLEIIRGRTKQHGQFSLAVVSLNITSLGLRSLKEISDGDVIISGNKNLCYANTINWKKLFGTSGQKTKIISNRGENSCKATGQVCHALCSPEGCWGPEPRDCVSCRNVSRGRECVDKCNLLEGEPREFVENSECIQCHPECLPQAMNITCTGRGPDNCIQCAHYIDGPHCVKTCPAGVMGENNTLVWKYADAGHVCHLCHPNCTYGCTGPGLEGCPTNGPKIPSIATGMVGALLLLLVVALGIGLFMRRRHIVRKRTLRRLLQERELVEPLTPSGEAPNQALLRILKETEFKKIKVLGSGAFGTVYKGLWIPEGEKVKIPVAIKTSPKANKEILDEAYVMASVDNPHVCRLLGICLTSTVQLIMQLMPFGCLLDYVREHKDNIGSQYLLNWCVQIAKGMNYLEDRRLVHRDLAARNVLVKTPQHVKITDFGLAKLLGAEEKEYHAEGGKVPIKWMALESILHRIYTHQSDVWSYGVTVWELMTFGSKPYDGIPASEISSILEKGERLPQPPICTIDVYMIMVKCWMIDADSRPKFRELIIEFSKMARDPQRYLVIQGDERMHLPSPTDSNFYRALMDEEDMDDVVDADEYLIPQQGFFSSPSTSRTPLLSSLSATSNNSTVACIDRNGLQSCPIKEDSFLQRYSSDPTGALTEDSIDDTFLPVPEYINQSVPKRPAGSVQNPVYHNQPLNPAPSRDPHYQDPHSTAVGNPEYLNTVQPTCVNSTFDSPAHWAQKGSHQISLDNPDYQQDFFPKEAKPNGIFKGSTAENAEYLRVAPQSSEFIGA
T4 sequence (P04626 with tags, fused parts or gaps INS775YVMA): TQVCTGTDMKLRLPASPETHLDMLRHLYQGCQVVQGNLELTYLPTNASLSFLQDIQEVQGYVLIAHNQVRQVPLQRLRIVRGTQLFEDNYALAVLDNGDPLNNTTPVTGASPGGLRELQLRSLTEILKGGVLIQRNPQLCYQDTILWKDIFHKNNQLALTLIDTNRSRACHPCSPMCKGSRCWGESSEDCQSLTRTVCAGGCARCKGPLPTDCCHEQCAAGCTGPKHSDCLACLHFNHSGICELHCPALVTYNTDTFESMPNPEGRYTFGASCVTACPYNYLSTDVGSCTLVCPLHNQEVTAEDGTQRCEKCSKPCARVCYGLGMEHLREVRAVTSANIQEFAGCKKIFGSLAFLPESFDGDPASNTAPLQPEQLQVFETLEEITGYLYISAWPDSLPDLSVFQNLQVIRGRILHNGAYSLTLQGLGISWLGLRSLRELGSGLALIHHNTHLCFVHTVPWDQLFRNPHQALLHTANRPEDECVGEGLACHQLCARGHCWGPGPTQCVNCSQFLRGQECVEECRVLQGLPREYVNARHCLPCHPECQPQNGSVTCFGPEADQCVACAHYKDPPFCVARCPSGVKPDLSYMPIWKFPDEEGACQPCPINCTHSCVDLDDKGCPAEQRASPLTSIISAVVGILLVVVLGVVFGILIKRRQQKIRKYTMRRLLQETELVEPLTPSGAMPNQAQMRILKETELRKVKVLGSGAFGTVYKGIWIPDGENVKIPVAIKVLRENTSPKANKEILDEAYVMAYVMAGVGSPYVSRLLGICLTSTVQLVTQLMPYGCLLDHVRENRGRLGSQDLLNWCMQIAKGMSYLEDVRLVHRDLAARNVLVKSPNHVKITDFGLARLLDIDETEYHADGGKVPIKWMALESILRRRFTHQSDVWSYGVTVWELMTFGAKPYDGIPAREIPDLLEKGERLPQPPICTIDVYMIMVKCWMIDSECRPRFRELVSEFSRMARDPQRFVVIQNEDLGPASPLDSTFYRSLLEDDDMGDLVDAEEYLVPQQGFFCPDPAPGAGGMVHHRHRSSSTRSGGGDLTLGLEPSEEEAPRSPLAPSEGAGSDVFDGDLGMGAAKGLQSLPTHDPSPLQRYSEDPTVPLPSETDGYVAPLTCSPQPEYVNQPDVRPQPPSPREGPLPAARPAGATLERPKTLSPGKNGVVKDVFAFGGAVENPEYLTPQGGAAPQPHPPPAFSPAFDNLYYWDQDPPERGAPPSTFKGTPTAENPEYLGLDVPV

Row | Structure (SMILES) | IC50 [1] [nM] | EGFR exon 19 deletion and exon 20 T790M mutation IC50 [2] | EGFR exon 21 L858R and exon 20 T790M mutation IC50 [3] | IC50 [4] [nM] | IC50 [5] [nM]
1 | C=CC(=O)Nc1cc(Nc2ncc(C=C)c(-c3cn4c5c(cccc35)CCC4)n2)c(OC)cc1N(C)CCN(C)C [Example 27, N-(5-((4-(5,6-dihydro-4H-pyrrolo[3,2,1-ij]quinolin-1-yl)-5-vinylpyrimidin-2-yl)amino)-2-((2-(dimethylamino)ethyl)(methyl)amino)-4-methoxyphenyl)acrylamide] | < 100 | A (IC50 value for the indicated mutant below about 100 nM) | A (IC50 value for the indicated mutant below about 100 nM) | < 100 | < 100
2 | C=CC(=O)Nc1cc(Nc2ncc(Cl)c(-c3cn4c5c(cccc35)OCC4)n2)c(OC)cc1O[C@H](COCC)CN(C)C [Example 81, (S)-N-(5-((5-chloro-4-(2,3-dihydro-[1,4]oxazino[2,3,4-hi]indol-6-yl)pyrimidin-2-yl)amino)-2-((1-(dimethylamino)-3-ethoxypropan-2-yl)oxy)-4-methoxyphenyl)acrylamide] | < 100 | A (IC50 value for the indicated mutant below about 100 nM) | A (IC50 value for the indicated mutant below about 100 nM) | 100 to 500 | 
3 | C=CC(=O)Nc1cc(Nc2ncc(Cl)c(-c3cn4c5c(cccc35)CCC4)n2)c(OC)cc1O[C@H](COCC)CN(C)C [Example 23, (S)-N-(5-((5-chloro-4-(5,6-dihydro-4H-pyrrolo[3,2,1-ij]quinolin-1-yl)pyrimidin-2-yl)amino)-2-((1-(dimethylamino)-3-ethoxypropan-2-yl)oxy)-4-methoxyphenyl)acrylamide] | 100 to 500 | A (IC50 value for the indicated mutant below about 100 nM) | A (IC50 value for the indicated mutant below about 100 nM) | 100 to 500 | 
4 | C=CC(=O)Nc1cc(Nc2nccc(-c3c(N4CCCC4)n4c5c(cccc35)CCC4)n2)c(OC)cc1N(C)CCN(C)C [Example 93] | < 100 | A (IC50 value for the indicated mutant below about 100 nM) |  | 100 to 500 | < 100
5 | C=CC(=O)Nc1cc(Nc2ncc(OCCOC)c(-c3cn4c5c(cccc35)CCC4)n2)c(OC)cc1N(C)CCN(C)C [Example 104] | < 100 | A (IC50 value for the indicated mutant below about 100 nM) |  | 100 to 500 | < 100
6 | C=CC(=O)Nc1cc(Nc2ncc(C#N)c(-c3cn4c5c(cccc35)CCC4)n2)c(OC)cc1N1CC[C@@H](N(C)C)C1 [Example 15, (R)-N-(5-((5-cyano-4-(5,6-dihydro-4H-pyrrolo[3,2,1-ij]quinolin-1-yl)pyrimidin-2-yl)amino)-2-(3-(dimethylamino)pyrrolidin-1-yl)-4-methoxyphenyl)acrylamide] | < 100 | A (IC50 value for the indicated mutant below about 100 nM) |  | 100 to 500 | < 100
7 | C=CC(=O)Nc1cc(Nc2ncc(F)c(-c3cn4c5c(cccc35)CCC4)n2)c(OC)cc1N(C)CCN(C)C [Example 17, N-(5-((4-(5,6-dihydro-4H-pyrrolo[3,2,1-ij]quinolin-1-yl)-5-fluoropyrimidin-2-yl)amino)-2-((2-(dimethylamino)ethyl)(methyl)amino)-4-methoxyphenyl)acrylamide] | < 100 | A (IC50 value for the indicated mutant below about 100 nM) |  | 100 to 500 | 100 to 500
8 | C=CC(=O)Nc1cc(Nc2ncc(CC)c(-c3cn4c5c(cccc35)CCC4)n2)c(OC)cc1N(C)CCN(C)C [Example 2, N-(5-((4-(5,6-dihydro-4H-pyrrolo[3,2,1-ij]quinolin-1-yl)-5-ethylpyrimidin-2-yl)amino)-2-((2-(dimethylamino)ethyl)(methyl)amino)-4-methoxyphenyl)acrylamide] | < 100 | A (IC50 value for the indicated mutant below about 100 nM) |  | 100 to 500 | < 100
9 | C=CC(=O)Nc1cc(Nc2nccc(-c3c(N4CCCC4=O)n4c5c(cccc35)CCC4)n2)c(OC)cc1N(C)CCN(C)C [Example 72, N-(2-((2-(dimethylamino)ethyl)(methyl)amino)-4-methoxy-5-((4-(2-(2-oxopyrrolidin-1-yl)-5,6-dihydro-4H-pyrrolo[3,2,1-ij]quinolin-1-yl)pyrimidin-2-yl)amino)phenyl)acrylamide] | < 100 | A (IC50 value for the indicated mutant below about 100 nM) |  | 100 to 500 | < 100
10 | C=CC(=O)Nc1cc(Nc2ncc(-c3nccn3C)c(-c3cn4c5c(cccc35)CCC4)n2)c(OC)cc1N(C)CCN(C)C [Example 98] | < 100 | A (IC50 value for the indicated mutant below about 100 nM) |  | 100 to 500 | < 100
11 | C=CC(=O)Nc1cc(Nc2ncc(C(=O)O)c(-c3cn4c5c(cccc35)CCC4)n2)c(OC)cc1N(C)CCN(C)C [Example 45, 2-((5-acrylamido-4-((2-(dimethylamino)ethyl)(methyl)amino)-2-methoxyphenyl)amino)-4-(5,6-dihydro-4H-pyrrolo[3,2,1-ij]quinolin-1-yl)pyrimidine-5-carboxylic acid] | > 1000 | D (IC50 value for the indicated mutant greater than about 1 μM) |  | > 1000 | > 1000
12 | C=CC(=O)Nc1cc(Nc2ncc(Cl)c(-c3cn4c5c(cccc35)OCC4)n2)c(OC)cc1O[C@@H](COCC)CN(C)C [Example 80, (R)-N-(5-((5-chloro-4-(2,3-dihydro-[1,4]oxazino[2,3,4-hi]indol-6-yl)pyrimidin-2-yl)amino)-2-((1-(dimethylamino)-3-ethoxypropan-2-yl)oxy)-4-methoxyphenyl)acrylamide] | < 100 | A (IC50 value for the indicated mutant below about 100 nM) | A (IC50 value for the indicated mutant below about 100 nM) | 100 to 500 | 
13 | C=CC(=O)Nc1cc(Nc2ncc(-c3cnn(C)c3)c(-c3cn4c5c(cccc35)CCC4)n2)c(OC)cc1N(C)CCN(C)C [Example 49, N-(5-((4-(5,6-dihydro-4H-pyrrolo[3,2,1-ij]quinolin-1-yl)-5-(1-methyl-1H-pyrazol-4-yl)pyrimidin-2-yl)amino)-2-((2-(dimethylamino)ethyl)(methyl)amino)-4-methoxyphenyl)acrylamide] | < 100 | A (IC50 value for the indicated mutant below about 100 nM) |  | < 100 | < 100
14 | C=CC(=O)Nc1cc(Nc2ncc(NC(=O)CC)c(-c3cn4c5c(cccc35)CCC4)n2)c(OC)cc1N(C)CCN(C)C [Example 91] | < 100 | A (IC50 value for the indicated mutant below about 100 nM) |  | 100 to 500 | < 100
15 | C=CC(=O)Nc1cc(Nc2ncc(Cl)c(-c3cn4c5c(cccc35)CCC4)n2)c(Cl)cc1N(C)CCN(C)C [Example 12, N-(4-chloro-5-((5-chloro-4-(5,6-dihydro-4H-pyrrolo[3,2,1-ij]quinolin-1-yl)pyrimidin-2-yl)amino)-2-((2-(dimethylamino)ethyl)(methyl)amino)phenyl)acrylamide] | < 100 | A (IC50 value for the indicated mutant below about 100 nM) | A (IC50 value for the indicated mutant below about 100 nM) | 100 to 500 | 

Reference: patent US20170166598A1, “HETEROARYL COMPOUNDS FOR KINASE INHIBITION” (ARIAD PHARMACEUTICALS, INC., priority 2014, published 2017)
